Laboratory results published in BindingDB's records for doi:10.1016/s0960-894x(01)00631-x (Novartis Pharma, 2001).

molecular target: Substance-P receptor (Bos taurus); assay: In vitro binding affinity for Tachykinin receptor 1 of bovine retinal membranes using [3H]Sar9-substance P as radioligand

| IC50 | Compound |
| --- | --- |
| 6.4 nM | CN(C(=O)c1cc(C(F)(F)F)cc(C(F)(F)F)c1)N(CCC(=O)N[C@@H]1CCCCNC1=O)Cc1ccc2ccccc2c1 [3-[N'-(3,5-Bis-trifluoromethyl-benzoyl)-N'-methyl-N-naphthalen-2-ylmethyl-hydrazino]-N-((R)-2-oxo-azepan-3-yl)-propionamide] |
| 1.4 nM | CN(C(=O)c1cc(C(F)(F)F)cc(C(F)(F)F)c1)N(CCC(=O)N[C@@H]1CCCCNC1=O)Cc1ccc(Cl)c(Cl)c1 [3-[N'-(3,5-Bis-trifluoromethyl-benzoyl)-N-(3,4-dichloro-benzyl)-N'-methyl-hydrazino]-N-((R)-2-oxo-azepan-3-yl)-propionamide] |
| 18 nM | CN(C(=O)c1cc(C(F)(F)F)cc(C(F)(F)F)c1)N(CCC(=O)N[C@@H]1CCCCNC1=O)Cc1cc(Br)c(Br)s1 [3-[N'-(3,5-Bis-trifluoromethyl-benzoyl)-N-(4,5-dibromo-thiophen-2-ylmethyl)-N'-methyl-hydrazino]-N-((R)-2-oxo-azepan-3-yl)-propionamide] |
| 0.5 nM | CN(C(=O)c1cc(C(F)(F)F)cc(C(F)(F)F)c1)[C@@H](/C=C/C(=O)N[C@@H]1CCCCNC1=O)Cc1cn(C)c2ccccc12 [N-Methyl-N-[(E)-(R)-1-(1-methyl-1H-indol-3-ylmethyl)-3-((R)-2-oxo-azepan-3-ylcarbamoyl)-allyl]-3,5-bis-trifluoromethyl-benzamide] |
| 1.1 nM | CN(C(=O)c1cc(C(F)(F)F)cc(C(F)(F)F)c1)[C@@H](/C=C/C(=O)N[C@@H]1CCCCNC1=O)Cc1ccc2ccccc2c1 [N-Methyl-N-[(E)-(R)-1-naphthalen-2-ylmethyl-3-((R)-2-oxo-azepan-3-ylcarbamoyl)-allyl]-3,5-bis-trifluoromethyl-benzamide] |
| 20 nM | CN(C(=O)c1cc(C(F)(F)F)cc(C(F)(F)F)c1)[C@@H](/C=C/C(=O)N[C@@H]1CCCCNC1=O)Cc1cc(Br)c(Br)s1 [N-[(E)-(R)-1-(4,5-Dibromo-thiophen-2-ylmethyl)-3-((R)-2-oxo-azepan-3-ylcarbamoyl)-allyl]-N-methyl-3,5-bis-trifluoromethyl-benzamide] |
| 12 nM | CN(C(=O)c1cc(C(F)(F)F)cc(C(F)(F)F)c1)[C@@H](/C=C/C(=O)NC1CCCCCC1)Cc1ccc(Cl)cc1 [N-[(E)-(R)-1-(4-Chloro-benzyl)-3-cycloheptylcarbamoyl-allyl]-N-methyl-3,5-bis-trifluoromethyl-benzamide] |
| 1 nM | CN(C(=O)c1cc(C(F)(F)F)cc(C(F)(F)F)c1)[C@@H](/C=C/C(=O)NC1(C(N)=O)CCCCC1)Cc1ccc(Cl)cc1 [N-[(E)-(R)-3-(1-Carbamoyl-cyclohexylcarbamoyl)-1-(4-chloro-benzyl)-allyl]-N-methyl-3,5-bis-trifluoromethyl-benzamide] |
| 4.8 nM | CN(C(=O)c1cc(C(F)(F)F)cc(C(F)(F)F)c1)[C@@H](/C=C/C(=O)N[C@@H]1CCCCNC1=O)Cc1ccc(Cl)c(Cl)c1 [N-[(R,R)-(E)-(3,4-dichlorobenzyl)-3-(2-oxoazepan-3-yl)carbamoyl]allyl-N-methyl-3,5-bis(trifluoromethyl)benzamide] |
